From paper PMC11874007, “Switching Roles—Exploring Concentration-Dependent Agonistic versus Antagonistic Behavior of Integrin Ligands” (Journal of Medicinal Chemistry, 2025)

What was measured:
HN cells (αvβ6+) = assay: Time-dependent cellular uptake of Cy5.5-labeled ligands, HN cells; assay type: cell-based; details: Cy5.5-labeled ligands, 1 μM
Text: For intracellular drug delivery, integrin ligands designed as drug-conjugated vehicles have to be easily and selectively internalized by tumor cells (over)expressing the respective targeted integrin subtype. […] It should be noted here that HN, OV-MZ-6, and RKO cells also express low αvβ3 expression levels.
Figure 7 Cellular uptake of Cy5.5-labeled integrin ligands. […] Nuclei were costained with Hoechst 33342 (blue signal) and cell membranes with CellMask Green (green signal). Merge of stains (yellow signal) indicated colocalization of ligands at the cell membrane. Scale bar: 50 μm.
Microchamber cell culture slides were coated with fibronectin (2 μg/mL), followed by cell seeding at a density of 50,000 cells/well. After 24 h of cultivation, cells were treated with integrin ligands L1-Cy5.5 to L5-Cy5.5 (1 μM in 0.01% (w/v) CaCl2 and 0.1% (w/v) BSA in PBS; 250 μL/well) for 3, 30, 60, or 300 min at 37 °C. The cells were washed in PBS/0.01% (w/v) CaCl2 (6 × 800 μL) and the fluorescence signal intensity recorded using the LSM 700 microscope (Zeiss, Jena, Germany). CellMask Green Plasma Membrane Stain was used to stain the cell membrane; nuclei were stained with Hoechst 33342.

M21 cells = assay: Cell adhesion in the presence of ligand, M21 cells; assay type: cell-based; details: 1 μM
Method: Figure 10 (A) Effect of integrin ligands on cancer cell migration. […] Microscopical measurements of wound gaps were taken directly after setting the wound scratch and then after 9, 24, 48, and 72 h, respectively. Wound scratch assays were repeated at least three times. The extent of wound gap closure [%]/cell coverage was calculated by a python script utilizing Canny’s Edge Detection algorithm as described under Materials and summarized in the corresponding histograms (see also Scheme S5 in the Supporting Information). (B) Adhesion of M21, OV-MZ-6, and HN cells in the presence of the respective integrin targeting ligand at low (1 nM) and high (1 μM) concentrations. […] Depicted are typical microscopical images of the respective cell monolayers.

Compound | Cellular uptake, comparison of αvβ6 ligands (HN cells (αvβ6+)) | Effect on cell adhesion / attachment (M21 cells)
c(FRGDLAFp(NMe)K) [L3] | better cellular uptake than L4 | –
C#CCCC(=O)NCCCOc1ccc(C(=O)N[C@H](CC(=O)O)Cc2ccc(OCCCNc3cc(OC)ccn3)cc2)cc1 [L1, (S)-4-(4-(3-((4-Methoxypyridin-2-yl)amino)propoxy)phenyl)-3-(4-(3-(pent-4-ynamido)propoxy)benzamido)butanoic Acid] | – | performed as inhibitors of cell attachment
